Reference: US8952005B2, “Substituted 1,3-benzothiazol-2(3H)-ones and [1,3]thiazolo[5,4-B]pyridin-2(1H)-ones as positive allosteric modulators of mGluR2” (Merck Sharp & Dohme Corp., priority 2010, dated 2015)
pEC50: −log10 of the molar value.

Target: T1, recombinant human mGluR2 (Homo sapiens, UniProt Q14416)
T1 construct: expressed in transfected cells
Test: FLIPR Ca2+ mobilization assay, potentiation of glutamate response at mGluR2
Type: cell-based
Settings: potentiation after addition of EC20 concentration of glutamate (900 nM); CHO dhfr- cells expressing human mGluR2 and Gα16
Method: Inhibition constants are determined as follows. The compounds of the present invention may be tested in a fluorescence laser imaging plate reader (FLIPR) based assay. This assay is a common functional assay to monitor Ca^2+ mobilization in whole cells expressing recombinant receptor coupled with a promiscuous G-protein. CHO dhfr− cells stably expressing recombinant human mGluR2 and Gα16 loaded with Fluo-4 AM (Invitrogen, Carlsbad Calif.) are treated with dose responses of compounds and the Ca^2+ response is monitored on a FLIPR384 (Molecular Devices, Sunnydale Calif.) for agonist activity. The potentiation response is monitored after a subsequent addition of an EC20 concentration of glutamate (900 nM). The maximum calcium response at each concentration of compound for agonist or potentiation are plotted as dose responses and the curves are fitted with a four parameters logistic equation giving EC50 and Hill coefficient using the iterative non linear curve fitting software program.

T1 sequence (Q14416 19-872): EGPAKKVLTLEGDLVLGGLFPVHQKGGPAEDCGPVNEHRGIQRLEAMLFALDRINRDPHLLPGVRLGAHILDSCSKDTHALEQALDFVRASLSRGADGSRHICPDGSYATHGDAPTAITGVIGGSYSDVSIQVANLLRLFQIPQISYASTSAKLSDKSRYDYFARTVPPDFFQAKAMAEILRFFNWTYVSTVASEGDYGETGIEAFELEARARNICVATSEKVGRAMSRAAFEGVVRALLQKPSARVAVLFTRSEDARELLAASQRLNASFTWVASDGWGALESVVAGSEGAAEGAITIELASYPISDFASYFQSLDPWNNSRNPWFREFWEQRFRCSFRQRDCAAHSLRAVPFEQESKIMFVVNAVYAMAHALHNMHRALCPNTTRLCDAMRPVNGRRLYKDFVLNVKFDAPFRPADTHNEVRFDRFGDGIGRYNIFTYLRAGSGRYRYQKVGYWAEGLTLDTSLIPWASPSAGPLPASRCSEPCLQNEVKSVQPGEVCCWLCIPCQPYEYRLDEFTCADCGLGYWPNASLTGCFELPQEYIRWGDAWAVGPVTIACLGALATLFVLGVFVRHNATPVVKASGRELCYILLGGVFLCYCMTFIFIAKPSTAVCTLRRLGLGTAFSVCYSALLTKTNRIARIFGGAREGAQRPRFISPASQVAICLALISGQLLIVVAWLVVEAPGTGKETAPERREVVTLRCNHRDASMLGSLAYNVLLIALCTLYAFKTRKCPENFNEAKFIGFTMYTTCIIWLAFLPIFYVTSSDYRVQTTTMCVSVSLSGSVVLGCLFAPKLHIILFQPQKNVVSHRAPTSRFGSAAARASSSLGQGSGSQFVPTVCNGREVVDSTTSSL

SMILES | pEC50
N#Cc1cc(Oc2ccc(C#N)c(-c3ccc4c(n3)sc(=O)n4CC3CC3(F)F)c2)ccn1 (stereo not shown) [Example 16-3, 4-(4-cyano-3-{1-[(2,2-difluorocyclopropyl)methyl]-2-oxo-1,2-dihydro[1,3]thiazolo[5,4-b]pyridin-5-yl}phenoxy)pyridine-2-carbonitrile] | 7.82
N#Cc1ccccc1-c1ccc2c(c1)sc(=O)n2CC1CC1(F)F (stereo not shown) [Example 5-2, 2-(3-{[2,2-difluorocyclopropyl]methyl}-2-oxo-2,3-dihydro-1,3-benzothiazol-6-yl)benzonitrile] | 7.77
O=c1sc2cc(-c3cccc(N4CCS(=O)(=O)CC4)c3)ccc2n1CC1CC1 [Example 6-16, 3-(cyclopropylmethyl)-6-[3-(1,1-dioxidothiomorpholin-4-yl)phenyl]-1,3-benzothiazol-2(3H)-one] | 7.19
CC(C)(C)Cn1c(=O)sc2nc(-c3ccccc3C#N)ccc21 [Example 3-2, 2-[1-(2,2-dimethylpropyl)-2-oxo-1,2-dihydro[1,3]thiazolo[5,4-b]pyridin-5-yl]benzonitrile] | 7.47
N#Cc1ccccc1-c1ccc2c(c1)sc(=O)n2Cc1ccc(Cl)cc1F [Example 9-15, 2-[3-(4-chloro-2-fluorobenzyl)-2-oxo-2,3-dihydro-1,3-benzothiazol-6-yl]benzonitrile] | 6.61
Cc1ccc(C(C)(C)O)cc1-c1ccc2c(n1)sc(=O)n2CC1CC1(F)F (stereo not shown) [Example 2-3, 1-{[2,2-difluorocyclopropyl]methyl}-5-[5-(1-hydroxy-1-methylethyl)-2-methylphenyl][1,3]thiazolo[5,4-b]pyridin-2(1H)-one] | 6.82
N#Cc1cccnc1Oc1ccc2c(c1)sc(=O)n2CC1CC1(F)F (stereo not shown) [Example 18-3, 2-({3-[(2,2-difluorocyclopropyl)methyl]-2-oxo-2,3-dihydro-1,3-benzothiazol-6-yl}oxy)nicotinonitrile] | 6.51
